Test [1] addresses T1, T325A (inducible hexamer) UGDH (Homo sapiens, UniProt O60701, T325A).
T1 sequence (O60701 1-494 T325A): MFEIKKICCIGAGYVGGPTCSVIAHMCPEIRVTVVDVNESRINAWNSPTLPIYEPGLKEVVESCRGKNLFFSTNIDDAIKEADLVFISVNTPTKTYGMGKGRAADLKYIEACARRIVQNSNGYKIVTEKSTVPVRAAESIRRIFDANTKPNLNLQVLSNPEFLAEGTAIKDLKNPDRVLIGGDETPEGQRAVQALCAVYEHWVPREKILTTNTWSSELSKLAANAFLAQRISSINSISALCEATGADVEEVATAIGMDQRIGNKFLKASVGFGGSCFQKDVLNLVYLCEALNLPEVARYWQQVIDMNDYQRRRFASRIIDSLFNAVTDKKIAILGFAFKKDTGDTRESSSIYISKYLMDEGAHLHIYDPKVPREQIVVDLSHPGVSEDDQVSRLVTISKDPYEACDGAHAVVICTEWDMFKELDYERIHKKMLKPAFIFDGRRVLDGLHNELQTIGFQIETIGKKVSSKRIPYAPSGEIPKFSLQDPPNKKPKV
The test can be described thus: Thermal stability of UGDH, T325A. The conditions noted are these: T325A, all binary complexes except UDP-glucose. Type of test: binding. The method, then: (§1) FIG. 8A-8D show UDP-xylose effects on the thermal stability of WT, T325A (inducible hexamer), and T325D (obligate dimer) UGDH. […] Statistical analyses were performed using a two-way ANOVA with Bonferroni post tests on PRISM.

The target of test [2] is T2, UGDH T325A (Homo sapiens, UniProt O60701, T325A).
T2 sequence (O60701 1-494 T325A): T1 sequence (O60701 1-494 T325A)
The test can be described thus: Limited trypsin proteolysis of UGDH, T325A. The conditions noted are these: T325A ternary complexes; 500 μM. The procedure: (§2) UDP-xylose [20 μM] protected T325A apo from trypsin digestion (red star) and only slightly affected the other forms. […] Each assay contained 10 μg of enzyme, 10 ng Trypsin, and combinations of substrate, cofactor, and UDP-xylose, which was incubated 2.5 h, followed by SDS-PAGE.
(§3) The same procedures from above (see e.g., Example 7) were followed.

Test [3] has as its target T3, T325A-UGDH (inducible hexamer) (Homo sapiens, UniProt O60701, T325A).
T3 sequence (O60701 1-494 T325A): T1 sequence (O60701 1-494 T325A)
The test can be described thus: UGDH inhibition assay (IC50, Ki), T325A mutant. Type of test: biochemical. The method, then:
(§4) Ki values were determined by varying [UDP-glc] and holding NAD+ at saturating concentrations.
(§5) IC50 experiments were performed as described above (see e.g., Example 2).

Test [4] concerns the target T4, T325D (obligate dimer) UGDH (Homo sapiens, UniProt O60701, T325D).
T4 sequence (O60701 1-494 T325D): T1 sequence (O60701 1-494 T325A) with A325D
The test can be described thus: Thermal stability of UGDH, T325D. Type of test: binding. To be noted: T325D, all binary complexes except UDP-glucose. The method, then: as §1

For test [5], the target named is T5, WT UGDH (Homo sapiens, UniProt O60701).
T5 sequence (O60701 1-494): T1 sequence (O60701 1-494 T325A) with A325T
The test can be described thus: UGDH inhibition assay (IC50, Ki), WT enzyme. The class given is biochemical. The procedure:
as §4, §5

Test [6] addresses T5, WT UGDH. The test can be described thus: Limited trypsin proteolysis of UGDH, WT. To be noted: WT ternary complexes; 500 μM. The procedure:
as §2, §3

Test [7] deals with T6, T325D-UGDH (obligate dimer) (Homo sapiens, UniProt O60701, T325D).
T6 sequence (O60701 1-494 T325D): T1 sequence (O60701 1-494 T325A) with A325D
The test can be described thus: UGDH inhibition assay (IC50, Ki), T325D mutant. The class given is biochemical. To be noted: required 4 μM T325D instead of 1 μM. The method, then: as §4, §5

Results on one molecule are retold here after US11478457B2, “Castration-resistant prostate cancer” (priority 2015, dated 2022).

Changes are numbered by the printed parent chain.

As usually defined, the IC50 is the concentration at which inhibition is half-maximal. `O=C(O)CCc1ccc(-c2cccs2)o1` [Compound 31, 3-[5-(2-thienyl)-2-furyl]propanoic acid]: the “Effect on thermal stability” value in test [1] and in test [4] was “decreasing thermal stability” throughout. The “Effect on trypsin digestion” value in test [2] and in test [6] was “significantly affects” each time. Also, the IC50 in test [3] came to 86.98 ± 0.03 µM; in test [5] (WT-UGDH, 50 μM UDP-glc and 1 mM NAD+), 146.8 ± 1.05 µM; in test [7] it was 799.4 ± 0.05 µM. For the same molecule, the Mode of inhibition entry in test [5] (UGDH) was “allosteric inhibitor”.
